# PubChem BioAssay (NCI)
#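 Growth conditions: 96-well plates. Treatment: test compound, 48 hours, 5 concentrations. Analysis: linear interpolation between bracketing concentrations; unreached endpoints set to highest concentration. GI50: concentration for 50% inhibition of growth. TGI denotes the concentration required for complete inhibition of growth.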 Where a SMILES comes first, the peptide text is derived from it. The star is where a group is joined. X36 = O=C(c1ccc(-c2ccc(Cl)cc2Cl)o1)*
# Columns and labels:
# Assay in all cases: DTP human tumour cell line panel, 48 h
# HCT-116 colon = tested on: HCT-116 colon
# HT29 colon = tested on: HT29 colon
# NCI-H23 lung = tested on: NCI-H23 lung
# NCI/ADR-RES ovarian = tested on: NCI/ADR-RES ovarian
# A498 renal = tested on: A498 renal
# MDA-MB-435 = tested on: MDA-MB-435
SMILES,TGI (HCT-116 colon) [µM],TGI (HT29 colon) [µM],TGI (NCI-H23 lung) [µM],TGI (NCI/ADR-RES ovarian) [µM],TGI (A498 renal) [µM],TGI (MDA-MB-435) [µM],GI50 (A498 renal) [µM],GI50 (HT29 colon) [µM],GI50 (MDA-MB-435) [µM],GI50 (NCI-H23 lung) [µM],GI50 (NCI/ADR-RES ovarian) [µM]
Cc1ccn2c(=O)cc(-c3ccccc3)nc2c1,> 100,> 100,> 100,> 100,–,–,–,–,–,–,–
O=c1[nH]nc(Cc2ccc([N+](=O)[O-])cc2)n1CCO,> 100,> 100,> 100,> 100,> 100,> 100,–,–,–,–,–
CC(=O)O[C@H]1C#C/C=C\C#CC[C@@H]2C(=O)N[C@@H]12,> 100,> 100,60.9,> 75.9,98.9,> 100,–,–,–,–,–
N#C/C(=C\n1ccc(=O)[nH]c1=S)C(N)=O,> 100,> 100,> 100,> 100,> 100,> 100,–,–,–,–,–
O=c1c2c([N+](=O)[O-])cccc2nc2[nH]c3ccccc3n12,> 75,> 75,> 75,> 75,> 75,> 75,–,–,–,–,–
OCC1OC(n2cnc3c(Cl)nc(Nc4ccccc4)nc32)CC1O (configuration not stated),> 100,> 100,> 100,> 100,> 100,> 100,–,–,–,–,–
CCC(C#N)NC(=O)NC(C#N)CC (configuration not stated),> 100,> 100,> 100,> 100,> 100,> 100,–,–,–,–,–
c1cc2nnnn2nc1N1CCCC1,> 100,> 100,> 100,> 100,> 100,> 100,–,–,–,–,–
CNC(=O)Oc1ccc(-c2cn3cc(OC(=O)NC)ccc3n2)cc1,> 100,> 100,> 100,> 100,> 100,> 100,–,–,–,–,–
C=C1C(=O)CC2C(=O)C(C)(O)CC/C=C(\C)C(=O)CC12 (configuration not stated),23,> 64.9,45.7,> 100,> 100,> 55.7,–,–,–,–,–
Nc1cccc(Nc2nc3ccccc3nc2NS(=O)(=O)c2ccccc2)c1,32.9,62.6,42.6,> 100,–,62.4,–,–,–,–,–
CCOC(=O)/C=C(/C(=O)OCC)n1ccc(N)nc1=O,> 100,> 100,> 100,> 100,–,> 100,–,–,–,–,–
Cc1ccc(S(=O)(=O)OCC(=O)O)cc1,> 100,> 100,> 100,> 100,> 100,–,–,–,–,–,–
Nn1c(CCCCCCCCc2nnc(COc3ccc(Cl)cc3)n2N)nnc1COc1ccc(Cl)cc1,> 100,> 100,> 100,> 100,> 100,> 100,–,–,–,–,–
CCn1nc2c3c(ncn3C(C)(C)O2)c1=O,> 100,> 100,> 100,> 100,> 100,> 100,–,–,–,–,–
Cc1ccc(-c2cc(N)n(-c3nc4c(c(=O)n(C)c(=O)n4C)n3C)n2)cc1,> 100,> 100,> 100,> 100,> 100,> 100,–,–,–,–,–
O=C1NC(N/N=C/C(O)C(O)C(O)CO)=N/C1=C\c1ccco1 (configuration not stated),> 100,> 100,> 100,> 100,> 100,> 100,–,–,–,–,–
Cc1cn(C2CC(n3cc(Cn4cc(Br)c(=O)[nH]c4=O)nn3)C(CO)O2)c(=O)[nH]c1=O (configuration not stated),> 100,–,> 100,> 100,> 100,> 100,–,–,–,–,–
Nc1ccc(N=Nc2ccccc2)cc1,> 100,> 100,> 100,> 100,> 100,> 100,–,–,–,–,–
COc1cc(C2SCC(=O)N2c2ccc(-c3ccc(-n4c(-c5ccccc5)nc5ccccc5c4=O)cc3)cc2)cc(OC)c1OC (configuration not stated),35.1,> 100,> 100,> 100,> 100,> 100,–,–,–,–,–
Cc1cc(C)cc(Nc2cc(=O)[nH]c(=O)[nH]2)c1,> 100,> 100,> 100,> 100,> 100,> 100,–,–,–,–,–
O=c1c2ncn(COCCCl)c2n(-c2ccccc2)c(=S)n1-c1ccccc1,> 100,> 100,> 100,> 100,> 100,> 100,–,–,–,–,–
Cc1ccc2c(=O)cc(-c3cccs3)[nH]c2n1,> 100,> 70.9,> 63.6,11.9,> 100,5.65,–,–,–,–,–
C/C=C/C(O)P1(=O)N(Cc2ccccc2)[C@@H]2CCCC[C@H]2N1Cc1ccccc1 (some centres not stated),> 25,> 25,> 25,> 25,–,> 25,–,–,–,–,–
C1CCC2C(C1)CCCC2NC1=NCCO1 (configuration not stated),> 100,> 100,> 100,> 100,> 100,> 100,–,–,–,–,–
C[C@]12CCc3nc(Nc4ccccc4)sc3C1=CC[C@@H]1[C@@H]2CC[C@]2(C)/C(=N/NC(N)=S)CC[C@@H]12,–,> 100,> 100,> 100,> 100,> 100,1.39,2.23,3.05,6.15,4.01
CCC(C)C(NC(=O)CNC(=O)C(Cc1ccccc1)NC(=O)C1CCCN1C(=O)c1ccc(-c2ccc(Cl)cc2Cl)o1)C(=O)OC (configuration not stated) (X36-PFGI-OMe; configuration not given here),> 100,> 100,> 100,> 100,54.4,> 100,–,–,–,–,–
N#Cc1c(-c2ccccc2)nc(-c2ccccc2)sc1=S,> 100,> 100,> 100,> 100,> 100,> 100,–,–,–,–,–
COc1ccc(/C=N/N=C(\N)NO)c(O)c1,> 10,> 10,> 10,> 10,> 10,4.49,–,–,–,–,–
CC1=NN2C(=N)/C(=C/c3ccco3)C(=O)N=C2S1,> 100,> 100,> 100,> 100,> 100,> 100,–,–,–,–,–
